Measurements taken from ChEMBL document CHEMBL5360603, “Diselenide Covalent Allosteric Inhibitors of Glutaminase with Strong In Vivo Anticancer Activity” (ACS Med Chem Lett, 2023).
Activity calls are given as the source filed them. The calls are words filed in the database; no cut-off is given here. Starred links: 1 amine or outer side, 2 acyl side, 3 side chain; linkers in the order of their positions; H or OH if unused. Positions of bridges follow the written chain, without caps; N, C: chain ends. Non-standard residues stand in square brackets, D forms with d. Residues, ends and D or L forms follow the SMILES beside them. Chains are numbered I, II in the order given. Actinocin(9to1) = Cc1c2oc3c(C)ccc(C(=O)[*:1])c3nc-2c(C(=O)[*:2])c(N)c1=O; NMeV = CN[C@H](C(=O)O)C(C)C; Sar = CNCC(=O)O

Columns and labels:
[1] = Negative allosteric modulator activity at Escherichia coli GDH incubated for 1.5 hrs in presence of glutamate and NADP by EZMTT assay
A549 = assay: Antiproliferative activity against human A549 cells assessed as cell growth inhibition incubated for 5 days by EZMTT assay; type: functional, cell-based; details: A549, 120 h
Thioredoxin reductase = Thioredoxin reductase (Escherichia coli (strain K12), UniProt P0A9P4); assay: Negative allosteric modulator activity at Escherichia coli TrxR using DTNB as substrate preincubated for 20 mins followed by substrate addition in presence of NADPH and measured after 60 mins
H22 [2] = assay: Antiproliferative activity against mouse H22 cells assessed as cell growth inhibition incubated for 5 days by EZMTT assay; type: functional, cell-based; details: H22, 120 h
[3] = biological target: T1, Glutaminase kidney isoform, mitochondrial (Homo sapiens, UniProt O94925); assay: Negative allosteric modulator activity at human wildtype KGA incubated for 5 hrs in presence of GDH and NADP by EZMTT assay
T1 sequence (O94925 whole entry): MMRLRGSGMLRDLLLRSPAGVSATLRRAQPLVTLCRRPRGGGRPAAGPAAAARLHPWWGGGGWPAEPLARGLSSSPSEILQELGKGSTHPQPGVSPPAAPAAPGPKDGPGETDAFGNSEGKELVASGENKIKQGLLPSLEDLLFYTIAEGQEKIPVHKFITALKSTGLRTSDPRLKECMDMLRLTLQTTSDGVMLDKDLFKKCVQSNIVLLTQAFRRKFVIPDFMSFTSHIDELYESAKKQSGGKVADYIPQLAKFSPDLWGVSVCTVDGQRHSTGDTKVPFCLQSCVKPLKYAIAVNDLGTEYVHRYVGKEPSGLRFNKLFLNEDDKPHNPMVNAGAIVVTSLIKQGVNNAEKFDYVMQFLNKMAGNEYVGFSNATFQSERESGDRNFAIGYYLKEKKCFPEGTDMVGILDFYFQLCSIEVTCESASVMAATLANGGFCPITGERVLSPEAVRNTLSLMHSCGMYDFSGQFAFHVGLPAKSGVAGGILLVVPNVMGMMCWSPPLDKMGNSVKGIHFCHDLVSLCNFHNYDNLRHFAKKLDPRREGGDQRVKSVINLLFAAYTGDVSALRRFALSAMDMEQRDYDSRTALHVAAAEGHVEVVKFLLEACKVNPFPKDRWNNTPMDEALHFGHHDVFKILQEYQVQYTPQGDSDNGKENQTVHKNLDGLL

H22 [4] = assay: Antitumor activity against mouse H22 cells xenografted in ICR mouse assessed as tumor growth inhibition at 0.25 mg/kg,SC for 10 consecutive days; type: functional, organism-based
[5] = Toxicity in ICR mouse xenografted with mouse H22 cells assessed as body weight loss at 0.25 mg/kg,SC for 10 consecutive days; type: organism-based; details: in vivo
[6] = biological target: T1, Glutaminase kidney isoform, mitochondrial; assay: Negative allosteric modulator activity at human wildtype KGA using glutamine as substrate preincubated for 1 hr followed by substrate addition in presence of GDH and NADP and measured after 4 hrs by EZMTT reagent based dilution assay
H22 [7] = assay: Antitumor activity against mouse H22 cells xenografted in ICR mouse assessed as increase in survival time at SC administration for 10 consecutive days and measured after 32 days; type: functional; details: time 32.0 day
H22 [8] = assay: Antitumor activity against mouse H22 cells xenografted in ICR mouse assessed as reduction in tumor size at 10 mg/kg,SC for 10 consecutive days; type: functional; design: scale not given: the % may be the effect or the level left
[9] = Toxicity in ICR mouse xenografted with mouse H22 cells assessed as change in body weight at 1 to 10 mg/kg,SC for 10 consecutive days and measured after 32 days; type: organism-based; details: in vivo, 768 h, dose 1-10 mg/kg, time 32 day
[10] = biological target: T2, Glutaminase kidney isoform, mitochondrial (Homo sapiens) (UniProt O94925); assay: Binding affinity to human biotinylated wildtype KGA at 0.01 to 1 uM by biolayer interferometry assay; details: filed as negative allosteric modulator, dose 0.01-1 µM
T2 sequence (whole entry): T1 sequence (O94925 whole entry)

[11] = Toxicity in ICR mouse xenografted with mouse H22 cells assessed as body weight loss at 10 mg/kg,SC for 10 consecutive days; type: organism-based; details: in vivo
Homo sapiens [12] = species: Homo sapiens; assay: Binding affinity to human biotinylated KGA K320A mutant at 0.01 to 1 uM by biolayer interferometry assay; details: dose 0.01-1 µM
[13] = Negative allosteric modulator activity at human KGA K320A mutant using glutamine as substrate preincubated for 1 hr followed by substrate addition in presence of GDH and NADP and measured after 4 hrs by EZMTT reagent based dilution assay
H22 [14] = assay: Antitumor activity against mouse H22 cells xenografted in ICR mouse assessed as increase in survival time at 10 mg/kg,SC administration for 10 consecutive days and measured after 32 days; type: functional, organism-based; details: time 32.0 day
Homo sapiens [15] = species: Homo sapiens; assay: Binding affinity to human biotinylated KGA K320A mutant at 1 to 10 uM by biolayer interferometry assay; details: dose 1-10 µM
[16] = test system: KATO III stomach cancer cell line; assay: Antiproliferative activity against human KATO III stomach cancer cell line assessed as cell growth inhibition incubated for 5 days by EZMTT assay; type: functional, cell-based; details: 120 h
ACHN = assay: Antiproliferative activity against human ACHN cells assessed as cell growth inhibition incubated for 5 days by EZMTT assay; type: functional, cell-based; details: 120 h
[17] = Toxicity in ICR mouse xenografted with mouse H22 cells assessed as change in body weight at 30 mg/kg,SC for 10 consecutive days and measured after 32 days; type: organism-based; details: in vivo, 768 h, time 32 day
CAKI-1 = assay: Antiproliferative activity against human CAKI-1 cells assessed as cell growth inhibition incubated for 5 days by EZMTT assay; type: functional, cell-based; details: CAKI-1, 120 h
HepG2 = assay: Antiproliferative activity against human HepG2 cells assessed as cell growth inhibition incubated for 5 days by EZMTT assay; type: functional, cell-based; details: HepG2, 120 h
U-251 = assay: Antiproliferative activity against human U-251 cells assessed as cell growth inhibition incubated for 5 days by EZMTT assay; type: functional, cell-based; details: U-251, 120 h
HGC-27 = assay: Antiproliferative activity against human HGC-27 cells assessed as cell growth inhibition incubated for 5 days by EZMTT assay; type: functional, cell-based; details: HGC-27, 120 h
[18] = Toxicity in ICR mouse xenografted with mouse H22 cells assessed as change in body weight at 10 mg/kg,SC for 10 consecutive days and measured after 32 days; type: organism-based; details: in vivo, 768 h, time 32 day

Sequence of Thioredoxin reductase (P0A9P4 whole entry): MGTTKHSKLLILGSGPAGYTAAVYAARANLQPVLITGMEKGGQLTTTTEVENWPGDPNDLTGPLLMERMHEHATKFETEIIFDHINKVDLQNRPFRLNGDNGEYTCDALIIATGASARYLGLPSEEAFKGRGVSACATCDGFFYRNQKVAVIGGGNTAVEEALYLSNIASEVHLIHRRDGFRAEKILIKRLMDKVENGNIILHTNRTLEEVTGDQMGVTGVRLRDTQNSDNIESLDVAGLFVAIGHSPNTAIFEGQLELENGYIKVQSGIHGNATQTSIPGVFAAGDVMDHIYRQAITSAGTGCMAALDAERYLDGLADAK

| Structure (SMILES) | IC50 [1] | IC50 (A549) | IC50 (Thioredoxin reductase) | IC50 (H22 [2]) | IC50 [3] | also measured |
| --- | --- | --- | --- | --- | --- | --- |
| Cc1nn(CCCCCCn2nc(C)c(Cl)c2C)c(C)c1Cl | > 10 µM | > 10 µM | > 10 µM | > 10 µM | > 10 µM | – |
| O=[N+]([O-])c1ccc2c(cnn2CC[Se][Se]CCn2ncc3cc([N+](=O)[O-])ccc32)c1 | > 10 µM | 0.4 µM | 0.7 µM | 8 µM | 0.4 µM | – |
| Cc1nn(CC[Se][Se]CCn2nc(C)c(Cl)c2C)c(C)c1Cl | > 10 µM | 3 µM | 0.7 µM | 4 µM | 0.54 µM | – |
| Cc1cc(C)n(CCSSCCn2nc(C)cc2C)n1 | > 10 µM | > 10 µM | > 10 µM | > 10 µM | > 10 µM | – |
| Cc1c2oc3c(C)ccc(C(=O)N[C@@H]4C(=O)N[C@H](C(C)C)C(=O)N5CCC[C@H]5C(=O)N(C)CC(=O)N(C)[C@@H](C(C)C)C(=O)O[C@@H]4C)c3nc-2c(C(=O)N[C@@H]2C(=O)N[C@H](C(C)C)C(=O)N3CCC[C@H]3C(=O)N(C)CC(=O)N(C)[C@@H](C(C)C)C(=O)O[C@@H]2C)c(N)c1=O [DACTINOMYCIN] (I: T[dV]P[Sar][NMeV] / II: T[dV]P[Sar][NMeV]; ester I:1-I:C, II:1-II:C; linker I:N-II:N via Actinocin(9to1)) | – | – | – | – | – | Activity (H22 [4]): Active; Activity [5]: Toxic |
| Cc1nn(CC[Se][Se]CCn2nc(C)c3ccccc32)c2ccccc12 | > 10 µM | 0.75 µM | 0.5 µM | 3.5 µM | 0.2 µM | IC50 [6]: 2.2 µM; Activity (H22 [7]): Dose-Dependent Effect; Activity (H22 [8]): ~70%; Activity [9]: Toxic; Activity [10]: Active; Activity [11]: Non-Toxic; Activity (Homo sapiens [12]): inactive; IC50 [13]: > 10 µM |
| Cc1nn(CCSSCCn2nc(C)c(Cl)c2C)c(C)c1Cl | > 10 µM | > 10 µM | > 10 µM | > 10 µM | > 10 µM | – |
| c1ccc(CC[Se][Se]CCc2ccccc2)cc1 | > 10 µM | > 10 µM | 13 µM | 5.6 µM | > 10 µM | – |
| O=C1c2ccccc2C(=O)N1CCSSCCN1C(=O)c2ccccc2C1=O | > 10 µM | > 10 µM | > 10 µM | > 10 µM | > 10 µM | – |
| CCCCCCCC[Se][Se]CCCCCCCC | > 10 µM | > 10 µM | > 10 µM | > 10 µM | > 10 µM | – |
| Nc1nnc(CC[Se][Se]CCc2nnc(N)[se]2)[se]1 | > 10 µM | 8 µM | 4 µM | 2.6 µM | 3 µM | – |
| Cc1nn(CCC[Se]CCn2nc(C)c(Cl)c2C)c(C)c1Cl | > 10 µM | > 10 µM | > 10 µM | 8 µM | > 10 µM | – |
| Nc1nnc(CCCCCCc2nnc(N)s2)s1 | > 10 µM | > 10 µM | > 10 µM | > 10 µM | > 10 µM | – |
| Nc1nnc(CCCCCCc2nnc(N)[se]2)[se]1 | > 10 µM | > 10 µM | > 10 µM | > 10 µM | > 10 µM | – |
| O=C(Cc1cccc(OC(F)(F)F)c1)Nc1ccc(CCCCc2nnc(NC(=O)Cc3ccccn3)s2)nn1 | > 10 µM | – | > 10 µM | > 10 µM | – | Activity (H22 [14]): inactive; Activity (Homo sapiens [15]): inactive; IC50 [13]: 0.3 µM |
| Nc1nnc(CC[Se][Se]CCc2nnc(N)s2)s1 | > 10 µM | 9 µM | 3 µM | 2.6 µM | 4 µM | – |
| Cc1cc(C)n(CC[Se][Se]CCn2nc(C)cc2C)n1 | > 10 µM | 1.7 µM | 3.7 µM | 2.8 µM | 3.6 µM | – |
| O=c1[nH]n(CC[Se][Se]CCn2[nH]c(=O)c3ccccc3c2=O)c(=O)c2ccccc12 | > 10 µM | > 10 µM | 2.1 µM | > 10 µM | 1 µM | – |
| O=C1c2ccccc2C(=O)N1CC[Se][Se]CCN1C(=O)c2ccccc2C1=O | > 10 µM | 1.6 µM | 0.7 µM | 0.83 µM | 0.4 µM | IC50 [6]: 2.1 µM; IC50 [16]: 1.65 µM; Activity (H22 [7]): Dose-Dependent Effect; Activity (H22 [8]): ~70%; IC50 (ACHN): 2.1 µM; Activity [17]: Toxic; IC50 (CAKI-1): 3.3 µM; IC50 (HepG2): 1.9 µM; IC50 (U-251): 1.6 µM; Activity [11]: Non-Toxic; IC50 (HGC-27): 1.2 µM; Activity [18]: Toxic; IC50 [13]: > 10 µM |
